Measurements taken from US20040048747A1, “Product formulation and method of its application for increasing the efficiency of systemic herbicides” (priority 2000, published 2004).

How the values were obtained:
Type in all cases: in vivo
[1] = tested on: dandelion (Taraxacum cordátum Palmgr.); test: Greenhouse pot spray test, selected formates with selected systemic herbicides (Example 3), dandelion; details: for desiccation of the leaves / damage (necrosis): formates 3000 ml (g) per decar, 6, 14 and 21 days after spraying
Experimental: Potassium diformate in a 50% water/volume solution (coded K-diform in the enclosed graphs). Potassium formate (50% w/v) (coded K-form in the enclosed graphs). Solid calcium formate solid was dissolved in water and coded Ca-form in the enclosed graphs. Dose rates applied were: 0 and 3000 ml (g) per decar (10^3 m^2).
“Roundup Bio” (360 gram/litre glyphosate), “Arsenal 250” (250 gram/litre imazapyr) and “Titus” (250 gram/kg rimsulfuron). The herbicides were applied at dose rates: 10%-40% of full rate:
Adjuvant: 0.1% wetting agent (“DP-spredemiddel”)
The formates, herbicides and adjuvants were mixed before spraying and applied at a calculated spray volume of 50 litre per decar (10^3 m^2). Seven pots were given each treatment.
The investigations were done on dandelion (Taraxacum cordátum Palmgr.):
The dandelion seeds were sown June 20 and transplanted to 13 cm plastic pots, one plant per pot. The plants were raised in a greenhouse. The spraying was carried out August 1 and the plants kept in greenhouse until harvest. Greenhouse conditions: 20-25° C. in 16 hrs, 14° C. in 8 hrs. Day length: 16 hrs artificial light.
Assessments of damage (necrosis): 6, 14 and 21 days after treatment (DAT). Regrowth and fresh weight were assessed 21 days after spraying.

Poa annua = test: Greenhouse pot spray test, potassium diformate and glyphosate combinations (Example 1), Poa annua; details: glyphosate alone, compared with the combination
Source text: (§1) The aim of this experiment was to investigate if a small dose of glyphosate, a foliage applied systemic herbicide, could extend the herbicide effect of potassium diformate. This is in particular important in perennial weeds, but also to have a complete kill of annual weeds.
(§2) Control of annual weeds will be essential in garden paths, roads, roadsides and other areas covered with gravel, bricks or flag stones. The weed must be totally killed since there is no competition from crop plants like in crop use situations. The aim of the experiment in greenhouse was to find methods to have optimal herbicide effect of K-diformate on different weed species and rape, which served as a model weed.
(§3) Seeds were sown in trays, and 2 seedlings were transplanted to 12 cm pots. The soil used was a mixture of 84% sphagnum, 10% sand and 6% clay. The pH was 5.8 and the soil was amended with balanced nutrients.
(§4) The temperature was set to 20° C. for 16 hours, 14° C. for 8 hours, but it varied ±3° C. Light period followed the natural day lengths, but artificial light was supplied 16 hours per day.
(§5) A wetting agent (0.1%) was used in order to secure complete contact with the plants to be treated. […]
(§6) Damage or injury of the plants was visually assessed after the following scale: […]

[2] = tested on: Dandelion (Taráxacum cordátum); test: Greenhouse pot spray test, potassium diformate and glyphosate combinations (Example 1), dandelion; details: glyphosate alone, compared with the combination
Source text: as §1, §2, §3, §4, §5, §6

## O=C[O-].O=C[O-].[Ca+2] [Ca-formate, calcium formate]
[1]
  desiccation of the leaves / damage (necrosis): even less effective than K-formate

## O=C[O-].[K+] [K-formate, Potassium formate]
[1]
  desiccation of the leaves / damage (necrosis): less effective

## O=C(O)CNCP(=O)(O)O [glyphosate]
Poa annua
  herbicide effect (speed and efficiency): much slower and very much less efficient
[2]
  herbicide effect (speed and efficiency): much slower and very much less efficient

## O=CO.O=C[O-].[K+] [potassium diformate]
[1]; 21 days after spraying, lowest dose rates of Roundup and Titus, compared between formates
  regrowth after mixing herbicide with formate: higher after mixing with K-diformate than mixing with Ca- or K-formate
[1]
  desiccation of the leaves / damage (necrosis): desiccated the leaves quickly
